Reference: patent US8697911B2, “Rho kinase inhibitors” (Boehringer Ingelheim International GmbH, priority 2010, dated 2014)
Like-named read-outs stand apart in the source and are kept apart here.

What was measured:
[1] = tested on: neointimal formation in rats; settings: cited from earlier work
Dahl salt-sensitive rats = settings: rat, in vivo; cited from earlier work
[2] = tested on: spontaneously hypertensive rat, renal hypertensive rat and deoxycortisone acetate salt hypertensive rat models; settings: cited from earlier work
ROCKII (1-543) [3] = target: T1, ROCKII (1-543) (Homo sapiens (Human), UniProt O75116); test: IMAP Assay (Assay 2); type: biochemical; settings: IMAP fluorescence polarization; 100 μM ATP, 1 nM kinase
Experimental: This assay is performed using FAM S6 substrate peptide (Catalogue #R7184) and IMAP FP Screening Express Kit detection reagents from Molecular Devices (Sunnyvale, Calif.) in IMAP kinase reaction buffer (Tris-HCl, pH 7.2, 10 mM MgCl2, 0.05% NaN3, 0.1% phosphate-free BSA) containing 1 mM DTT. Test compounds dissolved in neat DMSO at 0.3 mg/mL are serially diluted 1 to 3 for concentration response in 100% DMSO. The DMSO serial dilutions are further diluted 33.33-fold in kinase reaction buffer, and 10 μL of this buffer dilution is transferred to Corning black 96-well half area NBS plates for a final top concentration of 3 μg/mL in 1% DMSO. 10 μL aliquot of 3 nM ROCKII (1-543) diluted in kinase reaction buffer is added to each assay well for a final concentration of 1 nM kinase. 10 μL of a mixture of 600 nM FAM S6 peptide and 300 μM ATP diluted in kinase reaction buffer is added to each well for a final concentration of 200 nM peptide and 100 μM ATP. The kinase reaction mixture is incubated for 60 minutes at room temperature. Positive controls are reaction mixtures containing no test compound and negative controls (blanks) are reaction mixtures containing no kinase. The kinase reaction is stopped by addition of 60 μL IMAP progressive binding reagent (Catalog #R7284) diluted 400-fold in 1× Binding buffer A. After 30 min of incubation at room temperature, the plates are read for fluorescence polarization on Analyst Plate Reader using Ex 485 nm, Em 530 nm, and FL 505 dichroic minor. The mP signals are converted to percent of control (POC) values using the formula: POC=100*(Signal−BCTRL)÷(PCTRL−BCTRL)
Where Signal is the test well signal, BCTRL is the average of background (negative control) well signals on the plate and PCTRL is the average of positive control well signals on the plate. For the concentration-responsive compounds, POC as a function of test compound concentration is fitted to a 4-parameter logistic equation of the form: Y=A+(B−A)/[1+(x/C)D]
Where A, B, C, and D are fitted parameters (parameter B is fixed at zero POC), and x and y are the independent and dependent variables, respectively. The IC50 is determined as the inflection point parameter, C.
Target sequence in this assay (O75116 1-543, species assumed): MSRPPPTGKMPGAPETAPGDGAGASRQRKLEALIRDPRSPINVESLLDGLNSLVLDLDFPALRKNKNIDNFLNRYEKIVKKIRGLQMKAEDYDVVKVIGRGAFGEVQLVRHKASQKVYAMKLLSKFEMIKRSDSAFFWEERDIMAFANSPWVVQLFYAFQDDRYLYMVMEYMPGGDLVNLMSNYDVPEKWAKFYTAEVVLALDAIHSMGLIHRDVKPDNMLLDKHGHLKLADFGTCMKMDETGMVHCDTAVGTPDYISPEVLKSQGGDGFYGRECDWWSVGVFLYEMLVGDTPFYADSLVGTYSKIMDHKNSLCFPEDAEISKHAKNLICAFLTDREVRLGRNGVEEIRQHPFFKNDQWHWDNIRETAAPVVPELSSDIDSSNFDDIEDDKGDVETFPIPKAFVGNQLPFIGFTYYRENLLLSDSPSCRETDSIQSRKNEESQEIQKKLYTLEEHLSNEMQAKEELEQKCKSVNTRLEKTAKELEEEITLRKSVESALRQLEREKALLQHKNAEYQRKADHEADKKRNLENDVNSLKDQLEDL

ROCKII (1-543) [4] = target: T1, ROCKII (1-543); test: Luciferin-Luciferase Assay (Assay 1); type: biochemical; settings: luciferin-luciferase residual ATP; 750 nM ATP, 7.5 nM kinase
Experimental: 1. Luciferin-Luciferase Assay
The activity of ROCKII (1-543) kinase is measured utilizing Cambrex PKLight ATP Detection Reagent, a homogeneous assay technology using luciferin-luciferase to quantify residual ATP. The assay is performed in 384-well low-volume, white, non-binding surface microtiter plates (Corning). The assay buffer is 25 mM HEPES, pH 7.5, 10 mM MgCl2, 50 mM KCl, 0.2% BSA, 0.01% CHAPS, 100 μM Na3VO4 and 0.5 mM DTT. Test compounds, dissolved in neat DMSO at 500 μg/mL, are serially diluted for dose response for a final starting concentration of 3 μg/mL in 1% DMSO of assay buffer. ROCKII (1-543) (62,408 Da) is diluted in assay buffer to a final concentration of 7.5 nM in a total volume of 15 μL. Positive controls are reaction mixtures containing no test compound; negative controls (blanks) are reaction mixtures containing no kinase. After 15 minutes of pre-incubation of the test compounds with the kinase, a mixture of ATP and peptide substrate ([…]) in assay buffer is added to each well for a final concentration of 750 nM ATP and 500 nM peptide, respectively. After 90 minutes of incubation of the kinase reaction at 28° C. temperature, 10 μL of PKLight ATP Detection Reagent (warmed to room temperature previously) is added to each well. The assay plate is incubated at room temperature for additional 15 minutes and then read on an Analyst in luminescence mode. Dose-response experiments for each of the test compounds are conducted in quadruplet. IC50 values of test compounds represent 50% response of the positive control from the dose-response curve.
Target sequence in this assay (O75116 1-543): as the sequence (O75116 1-543, species assumed) above

rat stroke model = settings: in vivo; cited from earlier work
[5] = tested on: IL-1 beta-induced coronary stenosis; settings: long term treatment; cited from earlier work

IC50 (ROCKII (1-543) [3]) [nM]	IC50 (ROCKII (1-543) [4]) [nM]	SMILES	also measured
–	–	C[C@@H](N)[C@H]1CC[C@H](C(=O)Nc2ccncc2)CC1 [Y-27632]	neointimal formation [1]: inhibited neointimal formation; ventricular hypertrophy and function (Dahl salt-sensitive rats): improve ventricular hypertrophy and function; effect on blood pressure ([2]; control rats): only a minor effect on blood pressure; effect on blood pressure ([2]; three rat models of hypertension): significantly decrease blood pressure
0.85	1.7	CN1CCc2ccc(NC(=O)c3cccc(CNC(=O)c4cc5cc(C(N)=O)ccc5[nH]4)c3)cc2C1 [compound 86]	–
17	3.1	CN1CCc2nc(NC(=O)c3cccc(CNC(=O)N4CCc5c(C#N)cccc54)c3)sc2C1 [compound 90]	–
17	4.1	CN1CCc2ccc(NC(=O)c3cccc(CNC(=O)c4cc5ccc(C#N)cc5n4C)c3)cc2C1 [compound 92]	–
46	8.1	CN1CCc2ccc(NC(=O)c3cccc(CNC(=O)c4cc5cc(C#N)ccc5n4C)c3)cc2C1 [compound 94]	–
1.25	1.4	Cc1nc(-c2ccncc2)sc1C(=O)NCc1cccc(C(=O)Nc2ccc3c(c2)CN(C)CC3)c1 [compound 95]	–
12.2	3.8	CN1CCc2ccc(NC(=O)c3cccc(CNC(=O)c4cc5cc(C(N)=O)ccc5n4C)c3)cc2C1 [compound 96]	–
2.6	1.7	CN(C)[C@H]1CCc2nc(NC(=O)c3cccc(CNC(=O)c4cn5cc(C#N)ccc5n4)c3)sc2C1 [compound 100]	–
0.22	1.3	CN1CCc2ccc(NC(=O)c3cccc(CNC(=O)c4cc(-c5ccncc5)[nH]n4)c3)cc2C1 [compound 119]	–
3.9	1.7	CN1CCc2ccc(NC(=O)c3cccc(CNC(=O)c4nnn(-c5nonc5N)c4-c4ccccc4)c3)cc2C1 [compound 123]	–
11	3.8	CN1CCc2nc(NC(=O)c3cccc(CNC(=O)c4cc5cc(C#N)ccc5n4C)c3)sc2C1 [compound 124]	–
26	5.9	Cc1c(C(=O)NCc2cccc(C(=O)Nc3ccc4c(c3)CN(C)CC4)c2)nnn1-c1nonc1N [compound 125]	–
0.195	1.3	CN1CCc2ccc(NC(=O)c3cccc(CNC(=O)c4ccc(-c5ccncc5)cc4)c3)cc2C1 [compound 129]	–
4.35	2.6	Cc1cc(-c2ccc(C(=O)NCc3cccc(C(=O)Nc4nc5c(s4)CN(C)CC5)c3)cc2)ccn1 [compound 144, 3-[4-(2-picoline-4-yl)-benzamidomethyl-N-(5-methyl-4,5,6,7-tetrahydro-thiazolo[5,4-c]pyridin-2-yl)-benzamide]]	–
0.57	1.9	Cc1c(C(=O)NCc2cccc(C(=O)Nc3nc4c(s3)C[C@@H](N3CCOCC3)CC4)c2)nnn1-c1nonc1N [compound 152]	–
39	9.5	Cc1cc(-c2ncc(C(=O)NCc3cccc(C(=O)Nc4nc5c(s4)CN(C)CC5)c3)s2)ccn1 [compound 154]	–
47	8.1	CN1CCc2ccc(NC(=O)c3cccc(CNC(=O)c4ccc(-c5cc[nH]n5)cc4)c3)cc2C1 [compound 155]	–
48	5.7	CN1CCc2ccc(NC(=O)c3cccc(CNC(=O)c4ccc(-n5cncn5)cc4)c3)cc2C1 [compound 178, 4-[1,2,4]triazol-1-yl-benzoic acid 3-(2-methyl-1,2,3,4-tetrahydro-isoquinolin-7-ylcarbamoyl)-benzylamide]	–
34	6.6	CN1CCc2ccc(NC(=O)c3cccc(CNC(=O)c4ccc(-c5ccn[nH]5)cc4)c3)cc2C1 [compound 179]	–
56	6.5	CN1CCc2ccc(NC(=O)c3cccc(CNC(=O)c4cccc(-c5cnco5)c4)c3)cc2C1 [compound 190]	–
30	4.8	CN1CCc2ccc(NC(=O)c3cccc(CNC(=O)c4cnc(-c5cccnc5)s4)c3)cc2C1 [compound 194]	–
1.6	3	Cc1nccn1-c1ccc(C(=O)NCc2cccc(C(=O)Nc3ccc4c(c3)CN(C)CC4)c2)cc1 [compound 200]	–
–	–	O=S(=O)(c1cccc2cnccc12)N1CCCNCC1 [fasudil]	infarct size and neurologic deficit (rat stroke model): reduce both the infarct size and neurologic deficit; coronary constrictive remodeling [5]: promote a regression of coronary constrictive remodeling; coronary stenosis [5]: progressively reduce coronary stenosis
